“And” between values parts separate entries of the source, which are not always exact repeats. Identical values can stand only once. “Also recorded” adds a separate entry of the source.
What was measured:
[1] = molecular target: CYP2C19 (Homo sapiens, UniProt P33261); assay: In vitro inhibition of CYP2C19; assay type: in vitro ADME; conditions: did not inhibit
[2] = Pharmacokinetic properties of the components (Table 6); assay type: in vivo, human; conditions: in vivo
[3] = test system: INSTI-resistant site-directed mutant HIV-1 viruses; assay: Susceptibility against INSTI-resistant site-directed mutant viruses; assay type: cell-based
[4] = molecular target: CYP2B6 (Homo sapiens, UniProt P20813); assay: In vitro inhibition of CYP2B6; assay type: in vitro ADME; conditions: did not inhibit
[5] = test system: HIV-1 with integrase substitutions; assay: Selection of dolutegravir-resistant viruses in cell culture; assay type: cell-based
[6] = molecular target: UGT1A3 (Homo sapiens, UniProt P35503); assay: In vitro substrate assessment, UGT1A3; assay type: in vitro ADME
[7] = molecular target: MATE1 (Homo sapiens, UniProt Q96FL8); assay: In vitro inhibition of MATE1; assay type: in vitro ADME
[8] = molecular target: OATP1B1 (Homo sapiens, UniProt Q9Y6L6); assay: In vitro substrate assessment, OATP1B1; assay type: in vitro ADME
[9] = Dolutegravir rat pre/post-natal development study; assay type: in vivo; conditions: relative to human exposure at the RHD
Text: In the rat pre/post-natal development study, decreased body weight of the developing offspring was observed during lactation at a maternally toxic dose (approximately 32 times human exposure at the RHD).

[10] = Multiple-dose pharmacokinetic properties (Table 7); assay type: in vivo, human; conditions: population PK, ART treatment-naive adults, 50 mg dolutegravir once daily
[11] = molecular target: renal OCT2 (Homo sapiens, UniProt O15244); assay: In vitro inhibition of renal OCT2; assay type: in vitro ADME
[12] = test system: laboratory strains of wild-type HIV-1; assay: Antiviral activity against laboratory strains in PBMCs and MT-4 cells; assay type: cell-based; conditions: Human immunodeficiency virus 1, MT4
[13] = molecular target: P-gp (Homo sapiens, UniProt P08183); assay: In vitro inhibition of P-gp; assay type: in vitro ADME; conditions: did not inhibit
[14] = Dolutegravir embryo-fetal development study in pregnant rats; assay type: in vivo, rat; conditions: oral up to 1,000 mg/kg daily, gestation Days 6 to 17
[15] = molecular target: T1, BCRP (Homo sapiens, UniProt Q9UNQ0); assay: In vitro inhibition of BCRP; assay type: in vitro ADME; conditions: did not inhibit
T1 sequence (Q9UNQ0 1-655): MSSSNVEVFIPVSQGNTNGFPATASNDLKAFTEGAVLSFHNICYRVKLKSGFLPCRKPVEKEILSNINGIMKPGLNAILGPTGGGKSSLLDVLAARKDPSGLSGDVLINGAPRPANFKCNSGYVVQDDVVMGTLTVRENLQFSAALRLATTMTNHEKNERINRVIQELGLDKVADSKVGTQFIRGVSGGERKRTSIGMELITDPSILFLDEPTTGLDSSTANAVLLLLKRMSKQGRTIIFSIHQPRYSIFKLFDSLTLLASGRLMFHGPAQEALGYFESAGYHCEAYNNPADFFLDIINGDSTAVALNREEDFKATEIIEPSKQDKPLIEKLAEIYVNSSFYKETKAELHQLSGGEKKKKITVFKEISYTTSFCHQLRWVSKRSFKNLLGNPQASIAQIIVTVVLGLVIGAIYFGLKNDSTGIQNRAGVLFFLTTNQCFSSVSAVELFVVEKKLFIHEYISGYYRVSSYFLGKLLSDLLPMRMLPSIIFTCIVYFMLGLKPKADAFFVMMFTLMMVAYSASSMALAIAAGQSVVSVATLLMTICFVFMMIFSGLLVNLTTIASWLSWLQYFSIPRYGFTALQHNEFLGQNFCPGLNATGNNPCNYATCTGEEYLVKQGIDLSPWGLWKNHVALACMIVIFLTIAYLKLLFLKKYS

[16] = test system: L5178Y mouse lymphoma; assay: Mouse lymphoma assay
[17] = test system: HIV-1 clinical isolates (group M clades A-G, group O); assay: Antiviral activity in cell culture against panel of HIV-1 clinical isolates; assay type: cell-based; conditions: Human immunodeficiency virus 1; 3 in each group of M [clades A-G], and 3 in group O
[18] = Established and other potentially significant drug interactions for dolutegravir (Table 5); assay type: in vivo, human
Text: These recommendations are based on either drug interaction trials or predicted interactions due to the expected magnitude of interaction and potential for serious adverse events or loss of efficacy [see Contraindications (4), Clinical Pharmacology (12.3)].

[19] = molecular target: T1, BCRP; assay: In vitro substrate assessment, BCRP; assay type: in vitro ADME
[20] = test system: HIV; assay: Antiviral activity in combination with other antiviral agents; assay type: cell-based
[21] = test system: CYP3A4; assay: In vitro induction of CYP3A4; assay type: in vitro ADME

Chain of MATE1 (Q96FL8 whole entry): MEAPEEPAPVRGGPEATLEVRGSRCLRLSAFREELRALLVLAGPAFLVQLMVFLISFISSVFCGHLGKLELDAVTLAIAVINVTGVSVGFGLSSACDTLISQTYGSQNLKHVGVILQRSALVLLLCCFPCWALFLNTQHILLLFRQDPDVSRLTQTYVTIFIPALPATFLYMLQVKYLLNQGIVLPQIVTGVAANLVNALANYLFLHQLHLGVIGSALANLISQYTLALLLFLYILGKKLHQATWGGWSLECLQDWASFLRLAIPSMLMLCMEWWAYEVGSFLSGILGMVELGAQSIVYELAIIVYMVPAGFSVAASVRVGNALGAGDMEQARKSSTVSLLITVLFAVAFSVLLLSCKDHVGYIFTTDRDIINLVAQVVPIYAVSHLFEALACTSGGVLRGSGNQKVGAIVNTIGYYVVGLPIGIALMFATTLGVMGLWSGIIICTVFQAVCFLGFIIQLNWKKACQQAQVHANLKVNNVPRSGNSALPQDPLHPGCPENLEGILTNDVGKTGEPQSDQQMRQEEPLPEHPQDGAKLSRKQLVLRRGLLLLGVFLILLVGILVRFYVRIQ
Chain of OATP1B1 (Q9Y6L6 whole entry): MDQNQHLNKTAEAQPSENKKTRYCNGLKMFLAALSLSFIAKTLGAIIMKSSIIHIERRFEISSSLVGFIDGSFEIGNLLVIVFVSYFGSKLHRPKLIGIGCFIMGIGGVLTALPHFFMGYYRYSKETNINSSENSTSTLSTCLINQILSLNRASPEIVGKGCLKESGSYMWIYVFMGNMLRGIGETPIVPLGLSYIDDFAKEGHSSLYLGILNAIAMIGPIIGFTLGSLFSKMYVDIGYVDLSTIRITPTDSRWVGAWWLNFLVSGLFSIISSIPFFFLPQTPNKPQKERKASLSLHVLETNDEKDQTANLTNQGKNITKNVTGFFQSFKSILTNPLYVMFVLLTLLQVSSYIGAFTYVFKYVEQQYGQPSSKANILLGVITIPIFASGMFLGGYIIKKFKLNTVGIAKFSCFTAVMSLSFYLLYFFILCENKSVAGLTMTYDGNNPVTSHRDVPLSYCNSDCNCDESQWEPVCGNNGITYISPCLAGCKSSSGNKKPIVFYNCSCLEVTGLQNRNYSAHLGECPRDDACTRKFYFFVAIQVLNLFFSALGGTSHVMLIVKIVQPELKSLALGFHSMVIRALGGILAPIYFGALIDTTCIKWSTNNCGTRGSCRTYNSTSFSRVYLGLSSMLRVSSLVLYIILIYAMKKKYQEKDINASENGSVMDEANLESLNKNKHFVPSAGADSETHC
Chain of UGT1A3 (P35503 29-534): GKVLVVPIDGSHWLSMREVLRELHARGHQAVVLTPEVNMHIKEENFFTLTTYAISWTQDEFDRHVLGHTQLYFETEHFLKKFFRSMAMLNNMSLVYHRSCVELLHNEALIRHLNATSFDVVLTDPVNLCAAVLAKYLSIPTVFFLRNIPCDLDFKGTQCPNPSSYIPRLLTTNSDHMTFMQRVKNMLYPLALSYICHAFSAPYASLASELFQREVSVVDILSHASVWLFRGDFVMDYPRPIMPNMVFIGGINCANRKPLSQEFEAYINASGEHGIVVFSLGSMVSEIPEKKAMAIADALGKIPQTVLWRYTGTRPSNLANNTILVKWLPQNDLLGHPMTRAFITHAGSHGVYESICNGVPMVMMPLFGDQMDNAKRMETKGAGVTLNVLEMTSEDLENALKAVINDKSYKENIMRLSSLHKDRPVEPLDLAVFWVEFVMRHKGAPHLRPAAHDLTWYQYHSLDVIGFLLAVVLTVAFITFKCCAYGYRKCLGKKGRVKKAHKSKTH
Chain of CYP2C19 (P33261 whole entry): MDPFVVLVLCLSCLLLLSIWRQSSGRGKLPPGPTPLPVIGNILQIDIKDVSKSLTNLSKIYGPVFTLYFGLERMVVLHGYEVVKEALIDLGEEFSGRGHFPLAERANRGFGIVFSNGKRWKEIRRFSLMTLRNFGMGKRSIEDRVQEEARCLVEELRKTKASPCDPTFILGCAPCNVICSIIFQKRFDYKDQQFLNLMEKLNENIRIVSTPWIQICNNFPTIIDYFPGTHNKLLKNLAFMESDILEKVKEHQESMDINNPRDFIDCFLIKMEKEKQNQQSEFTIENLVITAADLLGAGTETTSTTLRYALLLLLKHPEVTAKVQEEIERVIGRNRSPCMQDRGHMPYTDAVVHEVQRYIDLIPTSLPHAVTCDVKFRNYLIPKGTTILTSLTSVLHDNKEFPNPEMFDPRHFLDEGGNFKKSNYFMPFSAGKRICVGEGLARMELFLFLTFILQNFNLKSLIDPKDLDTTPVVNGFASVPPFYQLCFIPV
Chain of P-gp (P08183 whole entry): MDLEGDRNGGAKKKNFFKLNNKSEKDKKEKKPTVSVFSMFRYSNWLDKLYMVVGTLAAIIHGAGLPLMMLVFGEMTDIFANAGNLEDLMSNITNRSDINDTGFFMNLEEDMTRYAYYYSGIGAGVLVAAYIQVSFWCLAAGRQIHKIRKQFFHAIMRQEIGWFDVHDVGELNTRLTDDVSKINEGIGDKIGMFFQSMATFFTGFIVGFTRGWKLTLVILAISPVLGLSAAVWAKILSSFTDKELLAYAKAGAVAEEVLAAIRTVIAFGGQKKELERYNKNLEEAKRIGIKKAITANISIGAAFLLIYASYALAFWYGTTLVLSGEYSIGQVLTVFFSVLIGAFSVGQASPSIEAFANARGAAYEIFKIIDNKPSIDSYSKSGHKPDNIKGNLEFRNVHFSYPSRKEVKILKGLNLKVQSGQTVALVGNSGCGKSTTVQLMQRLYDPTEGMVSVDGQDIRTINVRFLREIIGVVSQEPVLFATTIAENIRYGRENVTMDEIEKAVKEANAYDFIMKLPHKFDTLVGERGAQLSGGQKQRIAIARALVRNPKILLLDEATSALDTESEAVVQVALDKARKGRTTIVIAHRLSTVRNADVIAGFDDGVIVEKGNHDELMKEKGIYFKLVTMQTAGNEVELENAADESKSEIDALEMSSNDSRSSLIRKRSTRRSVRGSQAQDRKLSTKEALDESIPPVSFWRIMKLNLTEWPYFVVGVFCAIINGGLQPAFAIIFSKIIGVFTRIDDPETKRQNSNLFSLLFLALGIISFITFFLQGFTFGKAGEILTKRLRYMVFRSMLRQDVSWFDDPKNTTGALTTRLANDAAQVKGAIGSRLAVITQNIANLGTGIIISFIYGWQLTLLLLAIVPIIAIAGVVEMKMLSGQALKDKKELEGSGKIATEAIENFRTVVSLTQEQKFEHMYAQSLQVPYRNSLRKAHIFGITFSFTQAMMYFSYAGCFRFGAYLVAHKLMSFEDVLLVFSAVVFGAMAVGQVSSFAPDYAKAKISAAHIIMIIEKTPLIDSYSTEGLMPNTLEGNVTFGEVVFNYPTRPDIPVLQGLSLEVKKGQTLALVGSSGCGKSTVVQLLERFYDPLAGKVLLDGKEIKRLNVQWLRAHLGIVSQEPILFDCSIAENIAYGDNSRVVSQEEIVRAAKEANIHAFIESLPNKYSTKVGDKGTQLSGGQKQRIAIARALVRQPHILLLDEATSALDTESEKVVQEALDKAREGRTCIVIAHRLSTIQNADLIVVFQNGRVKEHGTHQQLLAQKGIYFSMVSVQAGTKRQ
Chain of renal OCT2 (O15244 whole entry): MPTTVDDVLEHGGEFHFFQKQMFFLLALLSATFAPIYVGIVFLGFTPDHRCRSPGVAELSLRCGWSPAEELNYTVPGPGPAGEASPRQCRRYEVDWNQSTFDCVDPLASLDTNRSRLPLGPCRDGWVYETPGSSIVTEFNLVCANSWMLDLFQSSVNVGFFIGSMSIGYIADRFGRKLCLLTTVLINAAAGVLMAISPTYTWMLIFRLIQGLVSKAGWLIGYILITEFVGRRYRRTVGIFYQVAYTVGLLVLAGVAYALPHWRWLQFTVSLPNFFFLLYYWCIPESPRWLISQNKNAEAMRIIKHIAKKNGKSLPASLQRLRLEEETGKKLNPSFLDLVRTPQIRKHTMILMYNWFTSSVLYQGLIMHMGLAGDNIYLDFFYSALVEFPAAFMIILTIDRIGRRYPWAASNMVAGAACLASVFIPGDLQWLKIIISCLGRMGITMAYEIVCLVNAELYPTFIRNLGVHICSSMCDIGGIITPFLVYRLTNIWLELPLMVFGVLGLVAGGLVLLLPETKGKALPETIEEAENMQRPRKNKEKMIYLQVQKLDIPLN
Chain of CYP2B6 (P20813 whole entry): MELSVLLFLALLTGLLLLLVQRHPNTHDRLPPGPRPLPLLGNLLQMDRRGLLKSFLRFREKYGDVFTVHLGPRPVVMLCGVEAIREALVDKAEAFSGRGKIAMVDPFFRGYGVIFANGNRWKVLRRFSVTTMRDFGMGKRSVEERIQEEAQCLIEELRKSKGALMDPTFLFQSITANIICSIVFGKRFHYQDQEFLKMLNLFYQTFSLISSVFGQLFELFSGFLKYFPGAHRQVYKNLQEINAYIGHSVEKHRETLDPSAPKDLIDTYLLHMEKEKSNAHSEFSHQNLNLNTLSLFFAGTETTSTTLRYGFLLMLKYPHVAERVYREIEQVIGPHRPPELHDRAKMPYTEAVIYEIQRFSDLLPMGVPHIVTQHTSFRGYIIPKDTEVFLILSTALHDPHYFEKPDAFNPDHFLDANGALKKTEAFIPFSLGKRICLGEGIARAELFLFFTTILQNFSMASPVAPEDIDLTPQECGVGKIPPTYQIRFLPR

With `C[C@@H]1CCO[C@H]2Cn3cc(C(=O)NCc4ccc(F)cc4F)c(=O)c(O)c3C(=O)N12` [Dolutegravir, dolutegravir] the IC50 [1] was over 50 µM, the half-life ([2]; human) was about 840 min and the “Major route of elimination” value [2] was “Metabolism”. For the same compound, the Metabolic pathways [2] was “UGT1A1; also recorded: CYP3A (minor)”, the “Tmax, median” value [2] was 2.5 h and the “Decrease in dolutegravir susceptibility from reference” value ([3]; multiple substitutions T66K/L74M, E92Q/N155H, G140C/Q148R, G140S/Q148H, R or K, Q148R/N155H, T97A/G140S/Q148, E138/G140/Q148) was over 2 fold. The “Decrease in dolutegravir susceptibility from reference” value ([3]; single INSTI-resistance substitutions T66K, I151L, and S153Y) was over 2 fold, the IC50 [4] was over 50 µM and the “Decreased susceptibility to dolutegravir” value ([5]; G118R) was 10 fold. The “Decreased susceptibility to dolutegravir” value ([5]; substitutions E92Q, S153F or Y, G193E or R263K) was “up to 4 fold”, the “Substrate of UGT1A3” value [6] was “substrate” and the IC50 [7] was 6.34 µM. The “Substrate of OATP1B1” value [8] was “not a substrate”, the “Exposure multiple of maternally toxic dose with decreased body weight of developing offspring during lactation” value [9] was “approximately 32 times” and the “AUCtau, Mean (CV %)” value [10] was 53.6 (27%) mcg/h/mL. The “Cmax, Mean (CV %)” value [10] was 3.67 (20%) mcg/mL, the “Ctrough, Mean (CV %)” value [10] was 1.11 (46%) mcg/mL and the IC50 [11] was 1930 nM. For the same compound, the EC50 [12] was 0.5 nM to 2.1 nM and 0.00021 µg/mL to 0.00085 µg/mL, the IC50 [13] was over 50 µM and the “Effects on embryo-fetal development” value [14] was “No adverse effects”. The IC50 [15] was over 50 µM, the “Genotoxicity/mutagenicity, mouse lymphoma assay” value [16] was “not genotoxic” and the EC50 [17] was 0.02 to 2.14 nM. For the same compound, the “Effect on Concentration of dolutegravir” value ([18]; concomitant Carbamazepine) was “↓Dolutegravir”, the “Effect on Concentration of dolutegravir” value ([18]; concomitant Oxcarbazepine, Phenytoin, Phenobarbital, trial or predicted interaction) was “↓Dolutegravir” and the “Effect on Concentration of dolutegravir” value ([18]; concomitant Rifampin) was “↓Dolutegravir”. For the same compound, the “Effect on Concentration of dolutegravir” value ([18]; concomitant St. John's wort (Hypericum perforatum), trial or predicted interaction) was “↓Dolutegravir”, the “Effect on Concentration of dolutegravir” value ([18]; concomitant medications containing polyvalent cations (antacids, laxatives, sucralfate, buffered medications)) was “↓Dolutegravir” and the “Effect on Concentration of dolutegravir” value ([18]; concomitant oral calcium and iron supplements, including multivitamins) was “↓Dolutegravir”. The “Substrate of BCRP” value [19] was “substrate”, the “Antagonism with tested anti-HIV agents” value [20] was “Neither dolutegravir nor lamivudine were antagonistic” and the “Induction of CYP3A4” value [21] was “did not induce”.

From patent US20220096487A1 (priority 2019, published 2022)
